Consider one compound from article PMC9191229, “Molecular and Biochemical Analysis of Duplicated Cytosolic CuZn Superoxide Dismutases of Rice and in silico Analysis in Plants” (Frontiers in Plant Science, 2022).

One may read the IC50 as the concentration needed to halve the response being measured. Higher therefore signals weaker potency.

Structures are written as SMILES.

The subject of one assay is T1, OsCSD1.
T1 construct: gene SODCC1
Put plainly: SOD activity, NBT reduction assay (NADH/PMS), A560. Conditions: 1 h pre-incubation with DDC (0-2.0 mM); 1 U enzyme; Tris-HCl 50 mM pH 8.0, EDTA 0.1 mM. In kind it is biochemical, Oryza sativa.

A further assay relates to T2, OsCSD4.
T2 construct: gene SODCC2
Nature of the assay: SOD activity, NBT reduction assay (NADH/PMS), A560. Conditions: 1 h pre-incubation with DDC (0-2.0 mM); 1 U enzyme; Tris-HCl 50 mM pH 8.0, EDTA 0.1 mM. Type of assay: biochemical, Oryza sativa.

With `CCN(CC)C(=S)S` [diethyldithiocarbamate], the IC50 stood at 520 µM with OsCSD1 and 500 µM in the assay on OsCSD4.
